Laboratory results from EP4461368A1, “5H-PYRROLO[3,2-B:5,4-C']DIPYRIDINE DERIVATIVES AND 6,7,8,9-TETRAHYDRO-5H-PYRROLO[3,2-B:5,4-C']DIPYRIDINE DERIVATIVES USEFUL IN THE TREATMENT OF CANCER” (Institut Regional du Cancer de Montpellier, priority 2023, dated 2024).

Legend:
Format in all cases: cell-based
Cytoplasmic- MDM2 = target: T1, Cytoplasmic- MDM2 (Homo sapiens, UniProt Q00987); experiment: MDM2 degradation by western blot and immunofluorescence, cytoplasmic MDM2; conditions: degradation efficacy, cells collected 18 hours after compound addition
T1 construct: endogenous in cells; host or cells: hPac / ZR75.1 cancer cells
Procedure: (§1) MDM2 degradation is measured by western blot and immunofluorescence.
(§2) Cells were seeded in 6-well plates (Sarsted) in complete DMEM medium as to obtain triplicates for each condition (500 000 cells/well). After 24 hours, the compounds were added to the cells. Then, 18 hours later cells were collected for western blotting or immunofluorescence. • Western Blot: Cells were collected in Laemmli buffer, boiled and analyzed in 8% acrylamide gel. • Immunofluorescence: Cancer cells were fixed with paraformaldehyde (PFA) 4% for 15 minutes then permeabilized for 15 minutes at RT with phosphate-buffered saline (PBS) Triton 0.1% and blocked with Phosphate buffered saline-[…] (PBS-BSA) 0.3% for 1 hour at RT before overnight incubation at 4 °C with an anti- mouse monoclonal antibody against MDM2 (MABE340 Millipore). Immunodetection was performed using an Alexa 488-conjugated anti-mouse IgG antibody (Thermo Fisher) for 45 minutes at RT. Cover glasses were mounted with Mowiol (Biovalley) and DAPI (Sigma) before analysis on a Zeiss apotome.

[1] = system: cancer cells not exhibiting recruitment of MDM2 to chromatin (Hpac/ZR75.1); experiment: Cell survival, Sulforhodamine B assay (SRB assay), cells without recruitment of MDM2 to chromatin; conditions: Hpac/ZR75.1 cells, treated for 72 hours with increasing concentrations
Procedure: (§3) Cell survival after MDM2 inhibitor treatment (IC50) was determined using the Sulforhodamine B assay (SRB assay).
(§4) Cells were seeded in 96-well plates (Sarsted) in complete DMEM medium as to obtain triplicates for each condition (5 000 cells/well). After 24 hours, serial dilutions of the indicated compounds were added to the cells. […] Fixed SRB was finally dissolved in 10 mM Tris-HCl solution and 560nm absorbance was read using a PHERAstar FSX plate reader.

Chromatin-MDM2 = target: T2, Chromatin-MDM2 (Homo sapiens, UniProt Q00987); experiment: MDM2 degradation by western blot and immunofluorescence, chromatin-bound MDM2; conditions: degradation efficacy, cells collected 18 hours after compound addition
T2 construct: endogenous in cells; host or cells: IB111 liposarcoma cells
Procedure: as §1, §2

[2] = system: cancer cells exhibiting recruitment of MDM2 to chromatin (IB111); experiment: Cell survival, Sulforhodamine B assay (SRB assay), cells with recruitment of MDM2 to chromatin
Procedure: as §3, §4

[3] = treated with increasing concentrations

T2 sequence (Q00987 whole entry): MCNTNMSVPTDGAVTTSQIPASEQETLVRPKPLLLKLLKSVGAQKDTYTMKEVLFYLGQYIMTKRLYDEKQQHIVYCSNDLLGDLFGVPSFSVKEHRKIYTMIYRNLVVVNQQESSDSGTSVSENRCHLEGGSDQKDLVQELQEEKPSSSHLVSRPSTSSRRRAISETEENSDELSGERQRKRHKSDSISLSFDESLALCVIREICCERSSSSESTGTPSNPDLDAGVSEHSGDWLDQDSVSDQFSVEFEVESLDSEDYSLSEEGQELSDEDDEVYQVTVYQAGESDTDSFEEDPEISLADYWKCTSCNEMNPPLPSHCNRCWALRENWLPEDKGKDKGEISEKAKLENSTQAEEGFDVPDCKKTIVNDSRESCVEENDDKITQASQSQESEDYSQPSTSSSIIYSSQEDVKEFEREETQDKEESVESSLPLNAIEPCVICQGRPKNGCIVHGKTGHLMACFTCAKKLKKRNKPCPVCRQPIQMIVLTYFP
T1 sequence (Q00987 whole entry): as above

Compound | Chromatin-MDM2 degradation (Chromatin-MDM2) | Cytoplasmic- MDM2 degradation (Cytoplasmic- MDM2) | efficiency on cancer cells not exhibiting recruitment of MDM2 to chromatin [1] | IC50 ([2]; treated for 72 hours with increasing concentrations) [nM] | IC50 [2, 3] [nM]
2-methoxy-6-(5,6,7,8-tetrahydronaphthalen-1-yl)-5H-pyrrolo[3,2-b:5,4-c'] dipyridine [Compound 14] | +++ (+++ ≥ 80%) | - (<25%: no degradation: indicated "-" in the table) | not efficient | < 500 | –
COc1ccc2[nH]c3c(-c4cccc5ccccc45)nccc3c2n1 [Compound 1, 2-methoxy-6-(naphthalen-1-yl)-5H-pyrrolo[3,2-b:5,4-c']dipyridine] | +++ (+++ ≥ 80%) | - (<25%: no degradation: indicated "-" in the table) | not efficient | – | < 500
COc1ccc2[nH]c3c(-c4ccnc5nccnc45)nccc3c2n1 [Compound 3, 2-methoxy-6-(pyrido[2,3-b]pyrazin-8-yl)-5H-pyrrolo[3,2-b:5,4-c'] dipyridine] | + (25%≤+<40%) | - (<25%: no degradation: indicated "-" in the table) | – | – | –
COc1ccc2[nH]c3c(-c4cccc5ccccc45)nccc3c2n1.Cl [Compound 4, 2-methoxy-6-(naphthalen-1-yl)-5H-pyrrolo[3,2-b:5,4-c']dipyridine hydrochloride] | +++ (+++ ≥ 80%) | - (<25%: no degradation: indicated "-" in the table) | not efficient | – | –
COc1ccc2[nH]c3c(-c4ccnc5ccccc45)nccc3c2n1 [Compound 6, 2-methoxy-6-(quinolin-4-yl)-5H-pyrrolo[3,2-b:5,4-c']dipyridine] | + (25%≤+<40%) | - (<25%: no degradation: indicated "-" in the table) | – | – | –
COc1ccc2[nH]c3c(-c4cccc5ccccc45)nccc3c2n1.O=C(O)/C=C/C(=O)O [Compound 10, 2-methoxy-6-(naphthalen-1-yl)-5H-pyrrolo[3,2-b:5,4-c']dipyridine fumarate] | +++ (+++ ≥ 80%) | - (<25%: no degradation: indicated "-" in the table) | not efficient | – | –

Second part, led by results:

Chromatin-MDM2 degradation (Chromatin-MDM2) | Compound | Cytoplasmic- MDM2 degradation (Cytoplasmic- MDM2) | efficiency on cancer cells not exhibiting recruitment of MDM2 to chromatin [1] | IC50 ([2]; treated for 72 hours with increasing concentrations) [nM] | IC50 [2, 3] [nM]
+++ (+++ ≥ 80%) | COc1ccc2[nH]c3c(-c4cccc5ccccc45)nccc3c2n1.O=C(O)CC(O)(CC(=O)O)C(=O)O [Compound 11, 2-methoxy-6-(naphthalen-1-yl)-5H-pyrrolo[3,2-b:5,4-c']dipyridine 2-hydroxypropane-1,2,3-tricarboxylate] | - (<25%: no degradation: indicated "-" in the table) | not efficient | – | –
++ (40%≤++<80%) | COc1ccc2[nH]c3c(-c4cccc5ccccc45)nccc3c2n1.O=P(O)(O)O [Compound 12, 2-methoxy-6-(naphthalen-1-yl)-5H-pyrrolo[3,2-b:5,4-c']dipyridine phosphate] | - (<25%: no degradation: indicated "-" in the table) | not efficient | – | –
++ (40%≤++<80%) | COc1ccc2[nH]c3c(-c4cccc5ccccc45)nccc3c2n1.O=S(=O)(O)O [Compound 13, 2-methoxy-6-(naphthalen-1-yl)-5H-pyrrolo[3,2-b:5,4-c']dipyridine sulfate] | - (<25%: no degradation: indicated "-" in the table) | not efficient | – | –
++ (40%≤++<80%) | COc1ccc2[nH]c3c(-c4ccc(F)c5ccccc45)nccc3c2n1 [Compound 15, 6-(4-fluoronaphthalen-1-yl)-2-methoxy-5H-pyrrolo [3,2-b: 5,4-c'] dipyridine] | - (<25%: no degradation: indicated "-" in the table) | not efficient | – | < 500
+++ (+++ ≥ 80%) | COc1ccc2[nH]c3c(-c4cccc5c4CCCC5)nccc3c2n1.Cl [Compound 16, 2-methoxy-6-(5,6,7,8-tetrahydronaphthalen-1-yl)-5H-pyrrolo[3,2-b:5,4-c']dipyridine hydrochloride] | - (<25%: no degradation: indicated "-" in the table) | not efficient | – | < 500
+ (25%≤+<40%) | COc1ccc2[nH]c3c(-c4ccc(F)c5ccccc45)nccc3c2n1.Cl [Compound 17, 6-(4-fluoronaphthalen-1-yl)-2-methoxy-5H-pyrrolo [3,2-b: 5,4-c']dipyridine hydrochloride] | - (<25%: no degradation: indicated "-" in the table) | – | – | –
